Measured values from patent US20210283261A1, “Compositions and Methods for Treating ALK-Mediated Cancer” (ICAHN SCHOOL OF MEDICINE AT MOUNT SINAI, priority 2017, published 2021).

Assays:
NPM-ALK fusion protein = target: T1, NPM-ALK fusion protein (Homo sapiens, UniProt Q9UM73); test: Western blot of NPM-ALK fusion protein levels in SU-DHL-1 cells; assay type: cell-based; conditions: SU-DHL-1 cells; for significantly reduced ALK fusion protein levels (degraders vs negative controls): 16 h; for Dmax at 0.03 µM: read-out: ALK fusion protein degradation, SU-DHL-1 (30 nM)
T1 construct: endogenous in cells; host or cells: SU-DHL-1; the other entry of the earlier key: NPM1 (P06748, Nucleophosmin)
Description: Cells were cultured in a 37° C. incubator with 5% CO2.
Cells were washed with cold PBS once and lysed in 1× Laemmli loading buffer directly. […] Membrane was blocked in 5% milk in Tris-buffered saline and Tween 20 (TBST) for 1 h at room temperature, followed by incubation with a primary antibody overnight at 4° C., and a horseradish peroxidase (HRP)-conjugated secondary antibody for 1 h at room temperature. The membrane was imaged by a ChemiDoc MP imaging system (BIO-RAD). Antibodies against GAPDH (abeam), Phospho-ALK (Tyr1507), ALK (Cell Signaling Technology), Tubulin (Santa Cruz) were purchased commercially.
SU-DHL-1 suspension cells were seeded in 12-well plates at a density of 6×10^5/mL and treated with DMSO or indicated compounds at 30 nM or 100 nM for indicated time.
SU-DHL-1 cells were seeded in 12-well plates at a density of 4×10^5/mL and treated with DMSO or indicated serial dilutions of compounds for 16 h. The NPM-ALK fusion protein levels were determined by Western blot and normalized against GPADH (right panel).

ALK fusion protein = target: T2, ALK fusion protein (Homo sapiens, UniProt Q9UM73); test: Western blot of ALK fusion protein levels in NCI-H3122 cells; assay type: cell-based; conditions: for significantly reduced ALK fusion protein levels (degraders vs negative controls): 16 h
T2 construct: endogenous in cells; host or cells: NCI-H3122; the other entry of the earlier key: EML4 (Q9HC35, Echinoderm microtubule-associated protein-like 4)
T2 sequence (Q9UM73 with tags, fused parts or gaps): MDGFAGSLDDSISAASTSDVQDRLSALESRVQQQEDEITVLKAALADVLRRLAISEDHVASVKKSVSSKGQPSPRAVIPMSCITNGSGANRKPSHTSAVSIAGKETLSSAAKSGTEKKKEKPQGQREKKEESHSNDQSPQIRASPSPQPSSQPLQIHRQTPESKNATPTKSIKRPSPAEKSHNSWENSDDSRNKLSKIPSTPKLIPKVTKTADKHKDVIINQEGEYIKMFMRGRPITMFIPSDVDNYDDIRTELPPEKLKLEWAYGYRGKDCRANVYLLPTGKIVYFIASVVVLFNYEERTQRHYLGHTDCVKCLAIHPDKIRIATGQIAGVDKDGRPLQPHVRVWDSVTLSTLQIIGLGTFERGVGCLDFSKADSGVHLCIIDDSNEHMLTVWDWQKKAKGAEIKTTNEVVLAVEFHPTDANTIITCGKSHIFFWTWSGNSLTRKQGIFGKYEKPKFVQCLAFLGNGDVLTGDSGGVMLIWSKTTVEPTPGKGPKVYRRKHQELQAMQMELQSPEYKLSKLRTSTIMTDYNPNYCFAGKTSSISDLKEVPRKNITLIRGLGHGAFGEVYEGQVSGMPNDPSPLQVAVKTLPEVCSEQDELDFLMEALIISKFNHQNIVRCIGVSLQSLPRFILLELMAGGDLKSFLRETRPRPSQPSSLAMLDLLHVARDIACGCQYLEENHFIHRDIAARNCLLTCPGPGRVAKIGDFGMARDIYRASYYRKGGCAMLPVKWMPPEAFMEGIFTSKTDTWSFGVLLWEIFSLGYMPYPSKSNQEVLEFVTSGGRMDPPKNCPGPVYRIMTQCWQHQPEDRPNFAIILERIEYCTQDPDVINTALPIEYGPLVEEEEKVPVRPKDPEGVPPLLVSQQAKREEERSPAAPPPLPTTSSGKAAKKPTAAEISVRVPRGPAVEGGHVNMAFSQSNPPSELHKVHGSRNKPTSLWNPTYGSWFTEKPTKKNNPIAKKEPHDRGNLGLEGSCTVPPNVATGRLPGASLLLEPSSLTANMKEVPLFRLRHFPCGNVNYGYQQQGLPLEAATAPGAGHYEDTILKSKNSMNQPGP

T1 sequence (Q9UM73 with tags, fused parts or gaps): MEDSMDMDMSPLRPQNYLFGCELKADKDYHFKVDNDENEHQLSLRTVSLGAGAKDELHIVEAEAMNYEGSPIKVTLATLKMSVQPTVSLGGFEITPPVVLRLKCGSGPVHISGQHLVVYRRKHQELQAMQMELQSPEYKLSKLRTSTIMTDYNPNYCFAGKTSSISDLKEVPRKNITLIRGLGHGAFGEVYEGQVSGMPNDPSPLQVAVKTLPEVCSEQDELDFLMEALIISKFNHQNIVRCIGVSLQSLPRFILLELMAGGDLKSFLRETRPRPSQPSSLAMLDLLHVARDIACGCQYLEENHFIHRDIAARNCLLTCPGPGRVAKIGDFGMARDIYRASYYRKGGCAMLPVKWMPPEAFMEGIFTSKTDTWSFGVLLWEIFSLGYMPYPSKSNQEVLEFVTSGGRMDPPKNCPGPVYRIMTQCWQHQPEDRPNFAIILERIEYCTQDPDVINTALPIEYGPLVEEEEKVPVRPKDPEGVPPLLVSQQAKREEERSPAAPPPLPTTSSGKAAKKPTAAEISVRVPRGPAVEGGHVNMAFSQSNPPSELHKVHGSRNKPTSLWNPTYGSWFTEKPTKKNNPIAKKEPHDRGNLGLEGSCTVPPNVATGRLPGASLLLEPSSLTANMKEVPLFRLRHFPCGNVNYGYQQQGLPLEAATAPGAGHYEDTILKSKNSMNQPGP

SMILES	Dmax at 0.03 µM (NPM-ALK fusion protein; 30 nM, Western blot)	also measured
Cc1cc(Nc2ncc(Cl)c(Nc3ccccc3S(=O)(=O)C(C)C)n2)c(OC(C)C)cc1C1CCN(C(=O)CCCC(=O)N[C@H](C(=O)N2C[C@@H](O)C[C@H]2C(=O)NCc2ccc(-c3scnc3C)cc2)C(C)(C)C)CC1 [HC58-111, (2S,4S)-1-((S)-2-(5-(4-(4-((5-Chloro-4-((2-(isopropylsulfonyl)phenyl)amino)pyrimidin-2-yl)amino)-5-isopropoxy-2-methylphenyl)piperidin-1-yl)-5-oxopentanamido)-3,3-dimethylbutanoyl)-4-hydroxy-N-(4-(4-methylthiazol-5-yl)benzyl)pyrrolidine-2-carboxamide]		significantly reduced ALK fusion protein levels (degraders vs negative controls) (NPM-ALK fusion protein): not; Dmax at 0.5 µM (ALK fusion protein; NCI-H3122, NCI-H3122 cells, 500 nM, Western blot, read-out: ALK fusion protein degradation, NCI-H3122 (500 nM)): < 20%; significantly reduced ALK fusion protein levels (degraders vs negative controls) (ALK fusion protein; NCI-H3122 cells): not
Cc1cc(Nc2ncc(Cl)c(Nc3ccccc3S(=O)(=O)C(C)C)n2)c(OC(C)C)cc1C1CCN(C(=O)COCCOCC(=O)N[C@H](C(=O)N2CC(O)C[C@H]2C(=O)NCc2ccc(-c3scnc3C)cc2)C(C)(C)C)CC1 (stereo in doubt) [HC58-110, (2S,4S)-1-((S)-2-(2-(2-(2-(4-(4-((5-Chloro-4-((2-(isopropylsulfonyl)phenyl)amino)pyrimidin-2-yl)amino)-5-isopropoxy-2-methylphenyl)piperidin-1-yl)-2-oxoethoxy)ethoxy)acetamido)-3,3-dimethylbutanoyl)-4-hydroxy-N-(4-(4-methylthiazol-5-yl)benzyl)pyrrolidine-2-carboxamide]		significantly reduced ALK fusion protein levels (degraders vs negative controls) (NPM-ALK fusion protein): not; ALK fusion protein degradation, NCI-H3122 (500 nM) (ALK fusion protein; NCI-H3122 cells, 500 nM, Western blot): − (Protein degradation <20%); significantly reduced ALK fusion protein levels (degraders vs negative controls) (ALK fusion protein; NCI-H3122 cells): not
Cc1cc(Nc2ncc(Cl)c(Nc3ccccc3S(=O)(=O)C(C)C)n2)c(OC(C)C)cc1C1CCN(CC(=O)NCCOCC(=O)N[C@H](C(=O)N2C[C@H](O)C[C@H]2C(=O)NCc2ccc(-c3scnc3C)cc2)C(C)(C)C)CC1 [CZ40-85, (2S,4R)-1-((S)-2-(2-(2-(2-(4-(4-((5-Chloro-4-((2-(isopropylsulfonyl)phenyl)amino)pyrimidin-2-yl)amino)-5-isopropoxy-2-methylphenyl)piperidin-1-yl)acetamido)ethoxy)acetamido)-3,3-dimethylbutanoyl)-4-hydroxy-N-(4-(4-methylthiazol-5-yl)benzyl)pyrrolidine-2-carboxamide]	< 20%	
Cc1cc(Nc2ncc(Cl)c(Nc3ccccc3S(=O)(=O)C(C)C)n2)c(OC(C)C)cc1C1CCN(CC(=O)NCCCCCCC(=O)N[C@H](C(=O)N2C[C@H](O)C[C@H]2C(=O)NCc2ccc(-c3scnc3C)cc2)C(C)(C)C)CC1 [CZ40-90, (2S,4R)-1-((S)-2-(7-(2-(4-(4-((5-Chloro-4-((2-(isopropylsulfonyl)phenyl)amino)pyrimidin-2-yl)amino)-5-isopropoxy-2-methylphenyl)piperidin-1-yl)acetamido)heptanamido)-3,3-dimethylbutanoyl)-4-hydroxy-N-(4-(4-methylthiazol-5-yl)benzyl)pyrrolidine-2-carboxamide]	< 20%	
Cc1cc(Nc2ncc(Cl)c(Nc3ccccc3S(=O)(=O)C(C)C)n2)c(OC(C)C)cc1C1CCN(CC(=O)NCCCCCCNc2cccc3c2C(=O)N(C2CCC(=O)NC2=O)C3=O)CC1 (centres unmarked) [CZ40-82, 2-(4-(4-((5-Chloro-4-((2-(isopropylsulfonyl)phenyl)amino)pyrimidin-2-yl)amino)-5-isopropoxy-2-methylphenyl)piperidin-1-yl)-N-(6-((2-(2,6-dioxopiperidin-3-yl)-1,3-dioxoisoindolin-4-yl)amino)hexyl)acetamide]	> 80%	
Cc1cc(Nc2ncc(Cl)c(Nc3ccccc3S(=O)(=O)C(C)C)n2)c(OC(C)C)cc1C1CCN(CC(=O)NCCOCCOCCOCCNc2cccc3c2C(=O)N(C2CCC(=O)NC2=O)C3=O)CC1 (centres unmarked) [CZ40-52, 2-(4-(4-((5-Chloro-4-((2-(isopropylsulfonyl)phenyl)amino)pyrimidin-2-yl)amino)-5-isopropoxy-2-methylphenyl)piperidin-1-yl)-N-(2-(2-(2-(2-((2-(2,6-dioxopiperidin-3-yl)-1,3-dioxoisoindolin-4-yl)amino)ethoxy)ethoxy)ethoxy)ethyl)acetamide]	> 80%	
Cc1cc(Nc2ncc(Cl)c(Nc3ccccc3S(=O)(=O)C(C)C)n2)c(OC(C)C)cc1C1CCN(CC(=O)NCCCCCNc2cccc3c2C(=O)N(C2CCC(=O)NC2=O)C3=O)CC1 (centres unmarked) [CZ40-81, 2-(4-(4-((5-Chloro-4-((2-(isopropylsulfonyl)phenyl)amino)pyrimidin-2-yl)amino)-5-isopropoxy-2-methylphenyl)piperidin-1-yl)-N-(5-((2-(2,6-dioxopiperidin-3-yl)-1,3-dioxoisoindolin-4-yl)amino)pentyl)acetamide]	> 80%	
Cc1cc(Nc2ncc(Cl)c(Nc3ccccc3S(=O)(=O)C(C)C)n2)c(OC(C)C)cc1C1CCN(CC(=O)NCCCCCCCCCCC(=O)NC(C(=O)N2CC(O)CC2C(=O)NCc2ccc(-c3scnc3C)cc2)C(C)(C)C)CC1 [CZ40-94, (2S,4R)-1-((S)-2-((11-(2-(4-(4-((5-Chloro-4-((2-(isopropylsulfonyl)phenyl)amino)pyrimidin-2-yl)amino)-5-isopropoxy-2-methylphenyl)piperidin-1-yl)acetamido)undecanamido)-3,3-dimethylbutanoyl)-4-hydroxy-N-(4-(4-methylthiazol-5-yl)benzyl)pyrrolidine-2-carboxamide]		ALK fusion protein degradation, SU-DHL-1 (30 nM) (NPM-ALK fusion protein; 30 nM, Western blot): + (Protein degradation 20-80%)
Cc1cc(Nc2ncc(Cl)c(Nc3ccccc3S(=O)(=O)C(C)C)n2)c(OC(C)C)cc1C1CCN(CC(=O)NCCCNc2cccc3c2C(=O)N(C2CCC(=O)NC2=O)C3=O)CC1 (centres unmarked) [CZ40-79, 2-(4-(4-((5-Chloro-4-((2-(isopropylsulfonyl)phenyl)amino)pyrimidin-2-yl)amino)-5-isopropoxy-2-methylphenyl)piperidin-1-yl)-N-(3-((2-(2,6-dioxopiperidin-3-yl)-1,3-dioxoisoindolin-4-yl)amino)propyl)acetamide]	> 80%	
Cc1cc(Nc2ncc(Cl)c(Nc3ccccc3S(=O)(=O)C(C)C)n2)c(OC(C)C)cc1C1CCN(CC(=O)NCCOCCOCCOCCOCCC(=O)N[C@H](C(=O)N2C[C@H](O)C[C@H]2C(=O)NCc2ccc(-c3scnc3C)cc2)C(C)(C)C)CC1 [CZ40-87, (2S,4R)-1-((S)-20-(tert-Butyl)-1-(4-(4-((5-chloro-4-((2-(isopropylsulfonyl)phenyl)amino)pyrimidin-2-yl)amino)-5-isopropoxy-2-methylphenyl)piperidin-1-yl)-2,18-dioxo-6,9,12,15-tetraoxa-3,19-diazahenicosan-21-oyl)-4-hydroxy-7V-(4-(4-methylthiazol-5-yl)benzyl)pyrrolidine-2-carboxamide]	< 20%	
Cc1cc(Nc2ncc(Cl)c(Nc3ccccc3S(=O)(=O)C(C)C)n2)c(OC(C)C)cc1C1CCN(CC(=O)NCCCCCC(=O)N[C@H](C(=O)N2C[C@H](O)C[C@H]2C(=O)NCc2ccc(-c3scnc3C)cc2)C(C)(C)C)CC1 [CZ40-89, (2S,4R)-1-((S)-2-(6-(2-(4-(4-((5-chloro-4-((2-(isopropylsulfonyl)phenyl)amino)pyrimidin-2-yl)amino)-5-isopropoxy-2-methylphenyl)piperidin-1-yl)acetamido)hexanamido)-3,3-dimethylbutanoyl)-4-hydroxy-N-(4-(4-methylthiazol-5-yl)benzyl)pyrrolidine-2-carboxamide]	20 to 80%	
Cc1cc(Nc2ncc(Cl)c(Nc3ccccc3S(=O)(=O)C(C)C)n2)c(OC(C)C)cc1C1CCN(CC(=O)NCCOCCOCCNc2cccc3c2C(=O)N(C2CCC(=O)NC2=O)C3=O)CC1 (centres unmarked) [CZ40-51, 2-(4-(4-((5-Chloro-4-((2-(isopropylsulfonyl)phenyl)amino)pyrimidin-2-yl)amino)-5-isopropoxy-2-methylphenyl)piperidin-1-yl)-N-(2-(2-(2-((2-(2,6-dioxopiperidin-3-yl)-1,3-dioxoisoindolin-4-yl)amino)ethoxy)ethoxy)ethyl)acetamide]	> 80%	
Cc1cc(Nc2ncc(Cl)c(Nc3ccccc3S(=O)(=O)C(C)C)n2)c(OC(C)C)cc1C1CCN(CC(=O)NCCCCC(=O)N[C@H](C(=O)N2C[C@H](O)C[C@H]2C(=O)NCc2ccc(-c3scnc3C)cc2)C(C)(C)C)CC1 [CZ40-88, (2S,4R)-1-((S)-2-(5-(2-(4-(4-((5-Chloro-4-((2-(isopropylsulfonyl)phenyl)amino)pyrimidin-2-yl)amino)-5-isopropoxy-2-methylphenyl)piperidin-1-yl)acetamido)pentanamido)-3,3-dimethylbutanoyl)-4-hydroxy-N-(4-(4-methylthiazol-5-yl)benzyl)pyrrolidine-2-carboxamide]	20 to 80%	
